Active and inactive are the calls of the source. The rule behind the calls is not given here.
Experiments:
[1] = molecular target: T1, Histone-lysine N-methyltransferase EHMT1 (Homo sapiens) (UniProt Q9H9B1); assay: (§1) Inhibition of wild type recombinant human histone lysine methyltransferase GLP (951 to 1235 residues) expressed in Escherichia coli Rosetta BL21 DE3 PlysS at 100 uM using ARTKQTARKSTGGKA as substrate preincubated for 5 mins followed by substrate/SAM addition measured after 60 mins by MALDI-TOF MS analysis
T1 sequence (whole entry): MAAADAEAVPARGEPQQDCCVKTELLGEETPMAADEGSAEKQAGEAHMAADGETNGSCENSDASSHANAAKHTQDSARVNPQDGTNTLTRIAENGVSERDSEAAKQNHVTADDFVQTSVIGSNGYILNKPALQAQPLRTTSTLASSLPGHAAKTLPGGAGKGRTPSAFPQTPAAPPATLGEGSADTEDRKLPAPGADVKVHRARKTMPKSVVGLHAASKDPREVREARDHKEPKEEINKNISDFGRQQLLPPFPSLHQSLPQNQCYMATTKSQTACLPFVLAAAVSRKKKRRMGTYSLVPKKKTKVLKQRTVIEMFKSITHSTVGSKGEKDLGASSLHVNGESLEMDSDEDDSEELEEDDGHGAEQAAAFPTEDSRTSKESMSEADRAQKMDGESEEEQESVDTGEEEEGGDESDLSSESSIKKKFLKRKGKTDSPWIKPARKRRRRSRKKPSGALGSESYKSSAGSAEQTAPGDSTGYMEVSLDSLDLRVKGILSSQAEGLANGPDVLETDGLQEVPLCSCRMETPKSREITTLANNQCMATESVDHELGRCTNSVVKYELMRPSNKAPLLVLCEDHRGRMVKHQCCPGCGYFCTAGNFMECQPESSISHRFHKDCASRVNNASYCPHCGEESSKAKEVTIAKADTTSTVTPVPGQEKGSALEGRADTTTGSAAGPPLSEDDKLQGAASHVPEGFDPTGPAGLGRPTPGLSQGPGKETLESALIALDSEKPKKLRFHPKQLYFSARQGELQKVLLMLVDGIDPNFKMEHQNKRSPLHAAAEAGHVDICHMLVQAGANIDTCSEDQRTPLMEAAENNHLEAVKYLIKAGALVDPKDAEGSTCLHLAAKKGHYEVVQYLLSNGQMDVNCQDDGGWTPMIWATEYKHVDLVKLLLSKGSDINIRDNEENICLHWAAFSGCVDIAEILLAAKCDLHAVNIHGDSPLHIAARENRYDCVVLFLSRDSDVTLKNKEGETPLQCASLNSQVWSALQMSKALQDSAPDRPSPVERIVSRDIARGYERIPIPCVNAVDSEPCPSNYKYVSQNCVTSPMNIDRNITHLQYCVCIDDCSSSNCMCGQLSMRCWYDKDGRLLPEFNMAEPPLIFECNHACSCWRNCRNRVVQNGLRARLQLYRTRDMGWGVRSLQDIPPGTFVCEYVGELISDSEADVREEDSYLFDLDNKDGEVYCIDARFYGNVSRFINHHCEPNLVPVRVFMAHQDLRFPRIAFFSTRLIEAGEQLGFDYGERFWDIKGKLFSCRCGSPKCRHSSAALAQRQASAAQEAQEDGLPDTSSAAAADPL

[2] = molecular target: T2, Histone-lysine N-methyltransferase EHMT2 (Homo sapiens) (UniProt Q96KQ7); assay: Inhibition of wild type recombinant human histone lysine methyltransferase G9a (913 to 1193 residues) expressed in Escherichia coli Rosetta BL21 DE3 PlysS assessed as zinc ions ejection from Cys4-Zn finger at 100 uM by FluoZin-3 based fluorescence assay
T2 sequence (whole entry): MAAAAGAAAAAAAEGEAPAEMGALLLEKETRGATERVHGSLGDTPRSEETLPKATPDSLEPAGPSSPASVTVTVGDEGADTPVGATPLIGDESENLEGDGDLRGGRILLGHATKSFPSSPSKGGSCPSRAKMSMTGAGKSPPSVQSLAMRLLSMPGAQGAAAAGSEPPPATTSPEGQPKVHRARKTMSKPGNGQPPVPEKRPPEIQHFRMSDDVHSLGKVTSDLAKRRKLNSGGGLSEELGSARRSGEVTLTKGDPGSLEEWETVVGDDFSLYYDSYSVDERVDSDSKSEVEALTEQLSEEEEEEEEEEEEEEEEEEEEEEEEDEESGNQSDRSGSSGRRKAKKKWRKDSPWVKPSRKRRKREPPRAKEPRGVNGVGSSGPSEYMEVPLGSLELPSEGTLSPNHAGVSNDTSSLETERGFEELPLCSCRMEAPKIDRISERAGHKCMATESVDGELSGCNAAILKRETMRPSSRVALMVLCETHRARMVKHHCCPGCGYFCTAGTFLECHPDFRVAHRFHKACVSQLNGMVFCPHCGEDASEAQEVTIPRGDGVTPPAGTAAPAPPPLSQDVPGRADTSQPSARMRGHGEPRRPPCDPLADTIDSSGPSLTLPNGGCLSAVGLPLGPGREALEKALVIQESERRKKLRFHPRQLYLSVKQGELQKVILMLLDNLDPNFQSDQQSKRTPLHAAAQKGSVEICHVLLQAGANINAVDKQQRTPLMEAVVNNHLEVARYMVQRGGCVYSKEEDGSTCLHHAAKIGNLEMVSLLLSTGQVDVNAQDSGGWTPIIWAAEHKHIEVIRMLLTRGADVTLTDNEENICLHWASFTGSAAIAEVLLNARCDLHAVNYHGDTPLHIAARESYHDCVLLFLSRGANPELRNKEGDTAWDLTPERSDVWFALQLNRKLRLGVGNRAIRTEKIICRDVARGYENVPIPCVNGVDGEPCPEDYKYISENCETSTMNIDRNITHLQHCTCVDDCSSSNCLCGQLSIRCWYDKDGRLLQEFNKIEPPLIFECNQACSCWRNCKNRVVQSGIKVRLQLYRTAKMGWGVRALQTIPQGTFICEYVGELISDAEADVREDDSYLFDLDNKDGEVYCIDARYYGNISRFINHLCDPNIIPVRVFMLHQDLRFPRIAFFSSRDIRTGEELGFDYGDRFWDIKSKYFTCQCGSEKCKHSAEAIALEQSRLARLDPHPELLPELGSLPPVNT

[3] = molecular target: T1, Histone-lysine N-methyltransferase EHMT1 (Homo sapiens); assay: Inhibition of wild type recombinant human histone lysine methyltransferase GLP (951 to 1235 residues) expressed in Escherichia coli Rosetta BL21 DE3 PlysS assessed as zinc ions ejection from Cys4-Zn finger at 100 uM by FluoZin-3 based fluorescence assay
[4] = molecular target: T2, Histone-lysine N-methyltransferase EHMT2 (Homo sapiens); assay: as §1, with “G9a (913” for “GLP (951”, “1193” for “1235”
[5] = molecular target: T1, Histone-lysine N-methyltransferase EHMT1 (Homo sapiens); assay: as §1, with “10” for “100”
[6] = molecular target: T3, Histone-lysine N-methyltransferase EHMT1 (Homo sapiens, UniProt Q9H9B1); assay: Inhibition of wild type recombinant human histone lysine methyltransferase GLP (951 to 1235 residues) expressed in Escherichia coli Rosetta BL21 DE3 PlysS using ARTKQTARKSTGGKA as substrate preincubated for 5 mins followed by substrate/SAM addition measured after 60 mins by MALDI-TOF MS analysis
T3 sequence (Q9H9B1 whole entry): T1 sequence (whole entry)

Row | SMILES | inhibition [1] | inhibition [2] | inhibition [3] | inhibition [4] | inhibition [5] | IC50 [6]
1 | CCN(CC)C(=S)SSC(=S)N(CC)CC | > 50% | Active | Active | > 50% | inactive | 1600 nM
2 | O=c1c2ccccc2[se]n1-c1ccccc1 [EBSELEN] | > 50% | Active | Active | > 50% | inactive | 730 nM
